These results are taken from ChEMBL document CHEMBL1201862, “PubChem BioAssay data set” (2004).

Structures are written as SMILES.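 Growth conditions: 96-well plates. Treatment: test compound, 48 hours, 5 concentrations. Analysis: linear interpolation between bracketing concentrations; unreached endpoints set to highest concentration. Abbreviation: GI50, concentration required for 50% inhibition of growth.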 Activity calls are given as the source filed them. Cut-off read from the data, not from the text of the source: active = GI50 up to about 1.1 µM and inactive = higher. Where only a bound is given, the exact number is not on record here.

Test systems include HT-29; RXF 393; NCI-H23; M14; IGROV-1; SF-295; A549; SNB-19; HOP-92; UO-31; UACC-62; OVCAR-5; KM12; EKVX; SK-MEL-28; Malme-3M.
What all share (test): DTP human tumour cell line panel, 48 h

In general, GI50 refers to the concentration giving 50% growth inhibition. Consider `O=C(Nc1ccc([N+](=O)[O-])cc1[N+](=O)[O-])C(=O)C(C(=O)c1ccc2ccccc2c1)C1OC(=O)c2ccccc21` (stereo unspecified), for which the GI50 in the assay on HT-29 is 16.7 µM (inactive); in the assay on RXF 393 it was 12 µM (inactive); in the assay on NCI-H23 it was 7.29 µM (inactive); with M14 it was 15.9 µM (inactive); with IGROV-1, 19.8 µM (inactive); in the assay with SF-295 it was 13.5 µM (inactive). The GI50 is 25.5 µM (inactive) in the assay with A549; 11.5 µM (inactive) with SNB-19; 17.8 µM (inactive) in the assay with HOP-92; 14 µM (inactive) with UO-31; 16.6 µM (inactive) in the assay on UACC-62; 20.2 µM (inactive) in the assay with OVCAR-5. For the same molecule, the GI50 with KM12 is 22.4 µM (inactive); in the assay with EKVX, 15.5 µM (inactive); with SK-MEL-28, 20 µM (inactive).

In the case of `CCCCCCCCCCCCCCCCOCC(COP(=O)([O-])OCC[N+](C)(C)C)OCCCCCCCCCCCCCCCC` (stereo unspecified), the GI50 in the assay on HT-29 is > 100 µM (inactive); with RXF 393, > 100 µM (inactive); in the assay with NCI-H23 it was > 100 µM (inactive); with IGROV-1, > 100 µM (inactive); in the assay with SF-295, > 100 µM (inactive); with A549 it was > 10 µM (inactive). Further, the GI50 in the assay on SNB-19, in the assay on HOP-92, in the assay with UO-31, with UACC-62, with OVCAR-5 and in the assay on Malme-3M was > 100 µM (inactive) each time. In addition, the GI50 in the assay with KM12, in the assay with EKVX and in the assay on SK-MEL-28 was > 100 µM (inactive) throughout.

Turning to `CC(=O)Nc1ccc(C2=N/C(=C\c3ccc(Cl)c(Cl)c3)C(=O)O2)cc1`, the GI50 in the assay on HT-29, in the assay on RXF 393, in the assay with NCI-H23, in the assay with M14, in the assay with IGROV-1 and in the assay with SF-295 was > 100 µM (inactive) each time. The GI50 is > 100 µM (inactive) in the assay with A549; > 100 µM (inactive) in the assay on SNB-19; 68.9 µM (inactive) in the assay with HOP-92; > 100 µM (inactive) in the assay on UO-31; > 100 µM (inactive) in the assay on UACC-62; > 100 µM (inactive) with OVCAR-5. Moreover, the GI50 in the assay on Malme-3M, in the assay on KM12, in the assay with EKVX and with SK-MEL-28 was > 100 µM (inactive) in each case.

For `CC(C)C1CN(C(=O)OCc2ccccc2)C2N1C(=O)C2(C)OCc1ccccc1` (stereo unspecified), the GI50 in the assay on HT-29 is 42.2 µM (inactive); with RXF 393 it was 21.4 µM (inactive); in the assay with NCI-H23, 24.5 µM (inactive); in the assay with M14, 36.1 µM (inactive); with IGROV-1 it was 35.9 µM (inactive); with SF-295, 34.8 µM (inactive). For the same molecule, the GI50 in the assay with A549 is 29.2 µM (inactive); with SNB-19, 46.7 µM (inactive); in the assay on UO-31, 20.3 µM (inactive); in the assay on UACC-62, 25.1 µM (inactive); with Malme-3M, 31.8 µM (inactive); in the assay on EKVX, 34 µM (inactive). In the assay on SK-MEL-28, the GI50 was > 100 µM (inactive).

With `COc1cc2c(c(OC)c1OC)-c1[nH]ncc1CC2`, the GI50 with HT-29, in the assay on NCI-H23, with M14, in the assay with IGROV-1, with SF-295 and in the assay with A549 was > 100 µM (inactive) each time. Besides, the GI50 in the assay on SNB-19, in the assay with HOP-92, in the assay on UO-31, with UACC-62, with OVCAR-5 and in the assay on Malme-3M was > 100 µM (inactive) throughout. Also, the GI50 with KM12, with EKVX and in the assay with SK-MEL-28 was > 100 µM (inactive) throughout.

Take `CN(c1ccccc1)c1c(-c2ccccc2)c(=O)oc2c1ccc1occc12`: the GI50 was > 95.7 µM (inactive) in the assay on HT-29; > 92.3 µM (inactive) in the assay with RXF 393; > 100 µM (inactive) in the assay with NCI-H23; > 100 µM (inactive) in the assay on IGROV-1; > 100 µM (inactive) with SF-295; > 100 µM (inactive) with A549. The GI50 in the assay on SNB-19, in the assay on UO-31, in the assay with UACC-62, with Malme-3M, in the assay on KM12 and in the assay on EKVX was > 100 µM (inactive) throughout. The GI50 with SK-MEL-28 is > 100 µM (inactive).

On to `COc1cc(/C=C2\C(=O)N(C(=O)Cc3ccccc3)N=C2C)cc(OC)c1OC`, for which the GI50 in the assay on HT-29, in the assay on NCI-H23, in the assay with M14, in the assay with SF-295, in the assay with A549 and with SNB-19 was > 100 µM (inactive) throughout. Besides, the GI50 in the assay with UO-31, with OVCAR-5, with Malme-3M, in the assay on KM12, with EKVX and in the assay with SK-MEL-28 was > 100 µM (inactive) throughout.

As to `O=C(CCC(=O)Nc1ccc(Cl)c(Cl)c1)CC(=O)c1ccc(Br)cc1`, the GI50 with HT-29, in the assay with RXF 393, in the assay on NCI-H23, with M14, in the assay on IGROV-1 and in the assay with A549 was > 100 µM (inactive) in each case. Moreover, the GI50 with SNB-19 was > 100 µM (inactive); in the assay on HOP-92, > 100 µM (inactive); with UO-31, > 100 µM (inactive); in the assay with UACC-62 it was 36.2 µM (inactive); in the assay on OVCAR-5, > 100 µM (inactive); with Malme-3M, > 100 µM (inactive). In addition, the GI50 with KM12, with EKVX and in the assay on SK-MEL-28 was > 100 µM (inactive) throughout.

For `C=C1CC(OC)(C(O)C(=O)N[C@H]2OCO[C@H]3C2O[C@H](C[C@@H](CO)OC)C(C)(C)C3OC)O[C@H](C)[C@@H]1C` (stereo partly specified), the GI50 in the assay on HT-29, in the assay on RXF 393, with NCI-H23, with IGROV-1, in the assay on SF-295 and in the assay on A549 was < 0.00931 µM (active) in each case. In addition, the GI50 in the assay with SNB-19, in the assay with HOP-92, in the assay with UO-31, in the assay on UACC-62, in the assay with OVCAR-5 and in the assay on KM12 was < 0.00931 µM (active) in each case. Also, the GI50 in the assay on SK-MEL-28 is < 0.00931 µM (active).

On to `Nc1c(C(=O)Nc2ccc(C3=NCCN3)cc2)cccc1C(=O)Nc1ccc(C2=NCCN2)cc1`, for which the GI50 in the assay on HT-29, in the assay with RXF 393, in the assay on NCI-H23, in the assay on IGROV-1, with SF-295 and in the assay with A549 was > 100 µM (inactive) each time. The GI50 with SNB-19, with HOP-92, in the assay with UO-31, in the assay on UACC-62, with OVCAR-5 and in the assay with Malme-3M was > 100 µM (inactive) in each case. Moreover, the GI50 with KM12 and in the assay on SK-MEL-28 was > 100 µM (inactive) each time.
